# ChEMBL document CHEMBL1155460, “Prediction of acetylcholinesterase inhibitors and characterization of correlative molecular descriptors by machine learning methods” (Eur J Med Chem, 2010)
# Molecular target: Acetylcholinesterase (Homo sapiens, UniProt P22303)
# Sequence (P22303 whole entry): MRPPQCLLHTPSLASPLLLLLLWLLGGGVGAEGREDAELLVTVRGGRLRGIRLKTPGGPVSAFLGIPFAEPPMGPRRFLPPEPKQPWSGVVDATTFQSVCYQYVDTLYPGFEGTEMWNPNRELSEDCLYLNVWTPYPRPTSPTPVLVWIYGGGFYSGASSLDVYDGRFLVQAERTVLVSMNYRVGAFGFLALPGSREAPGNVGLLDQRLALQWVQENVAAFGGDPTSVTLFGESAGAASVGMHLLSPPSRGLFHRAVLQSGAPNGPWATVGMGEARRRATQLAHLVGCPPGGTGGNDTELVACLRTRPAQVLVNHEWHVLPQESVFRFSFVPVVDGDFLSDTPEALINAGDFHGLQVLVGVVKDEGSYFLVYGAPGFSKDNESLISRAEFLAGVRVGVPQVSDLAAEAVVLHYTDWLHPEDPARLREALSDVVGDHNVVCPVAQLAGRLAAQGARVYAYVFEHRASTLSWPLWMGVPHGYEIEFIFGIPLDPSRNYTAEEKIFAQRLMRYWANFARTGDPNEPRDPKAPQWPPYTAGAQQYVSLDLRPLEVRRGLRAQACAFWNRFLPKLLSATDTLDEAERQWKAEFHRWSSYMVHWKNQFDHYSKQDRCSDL
row,Compound,IC50 [nM]
1,CN(CCCNc1ccc(-c2ccccc2)nn1)Cc1ccccc1,13000
2,CCCCCCNC(=O)Oc1ccc2c(c1)[C@]1(C)CCN(CCC)[C@@H]1C2,62
3,CN(CCCCNc1ccc(-c2ccccc2)nn1)Cc1ccccc1,11000
4,CCCCCCCNC(=O)Oc1ccc2c(c1)[C@]1(C)CCN(C)[C@@H]1C2,114
5,CCN1CCCC1CNc1ccc(-c2ccccc2)nn1 (stereo unspecified),62000
6,CCN1CCCCc2ccc(C(=O)CCC3CCN(Cc4ccccc4)CC3)cc21,376
7,CCCCNC(=O)Oc1cccc(CN(C)CCCOc2ccc3c(=O)ccoc3c2)c1,250
8,Cc1cc(-c2ccccc2)nnc1NCCC1CCN(Cc2ccccc2)CC1,320
9,CN(C)c1ccc(-c2c3cc(O)c(=O)cc-3oc3cc(O)c(O)cc23)cc1,22000
10,CN1CCc2cc(C(=O)CCC3CCN(Cc4ccccc4)CC3)ccc21,10
11,O=C(NCCCCCCCCNc1c2c(nc3cc(Cl)ccc13)CCCC2)c1c[nH]c2ccccc12,46
12,CCCCCCNC(=O)Oc1cccc(CN(C)CCCCCOc2ccc3c(=O)c4ccccc4oc3c2)c1,100
13,CN1CCCc2ccc(C(=O)CCC3CCN(Cc4ccccc4)CC3)cc21,36
14,Nc1c2c(nc3ccccc13)-c1ccccc1CCC2,166000
15,CN(CCOCCNC(=O)Nc1ccc([N+](=O)[O-])cc1)Cc1ccccc1,2300
16,c1ccc(-c2nnc(NCN3CCCCC3)s2)cc1,54000
17,CCN1CCC2c3cc(OC(=O)NC)ccc3CC21 (stereo unspecified),253
18,O=C(NCCCCCCNc1c2c(nc3cc(Cl)ccc13)CCCC2)c1c[nH]c2ccccc12,33
19,O=C1CCCCN1CCC1CCN(Cc2ccccc2)CC1,270
20,FC(F)(F)c1cc(-c2ccccc2)nnc1NCCN1CCOCC1,740000
21,CCCNC(=O)Oc1ccc2c(c1)[C@]1(C)CCN(CC)[C@@H]1C2,154
22,O=C1c2ccc([N+](=O)[O-])cc2C(=O)N1CC1CCN(Cc2ccccc2)CC1,3000
23,CNC(=O)Oc1ccc(-c2cn3ccccc3[n+]2C)cc1,19500

row,Compound,IC50 [nM]
1,O=C(c1ccccc1)N(CCC1CCN(Cc2ccccc2)CC1)c1ccccc1,35
2,c1ccc(-c2ccc(NCCCCCN3Cc4ccccc4CN3)nn2)cc1,10000
3,CNC(=O)Oc1cccc(-c2cn3c(NC(C)=O)cccc3[n+]2C)c1,4500
4,CC(=O)N(CCC1CCN(Cc2ccccc2)CC1)c1ccccc1,52
5,CC12CCC(c3c1nc1ccccc1c3N)C2(C)C (stereo unspecified),110000
6,CN(C)C(=O)Oc1cccc(-c2cn3c(C(F)(F)F)cccc3[n+]2C)c1,33600
7,CN(CCOCCNC(=S)NC(=O)c1ccc2c(c1)C(=O)c1ccccc1C2=O)Cc1ccccc1,6
8,O=C(CCC1CCN(Cc2cccc(Cl)c2)CC1)c1ccc2c(c1)NCCCC2,333
9,c1ccc(-c2ccc(NCCCN3CCc4ccccc4C3)nn2)cc1,35000
10,O=C(CCC1CCN(Cc2ccccc2)CC1)c1ccc2c(c1)NCCCCC2,127
11,CN(C)C(=O)Oc1cccc(-c2cn3ccccc3[n+]2C)c1,7100
12,CN1CCCc2cc(C(=O)CCC3CCN(Cc4ccccc4)CC3)ccc21,24
13,O=C(CCC1CCN(Cc2ccccc2)CC1)c1ccc2c(c1)CCN2,20
14,Cc1cc(-c2ccc(Cl)cc2)nnc1NCCN1CCCCC1,1300
15,CN(CCOCCNC(=S)Nc1ccccn1)Cc1ccccc1,4000
16,c1ccc(-c2ccc(NCCN3CCc4ccccc4C3)nn2)cc1,83000
17,O=C(/C=C/c1c[nH]c2ccccc12)NCCCCCCNc1c2c(nc3cc(Cl)ccc13)CCCC2,18
18,CNC(=O)Nc1cccc2n1cc(-c1ccc(OC(=O)N(C)C)cc1)[n+]2C,1350
19,COc1ccc2c(c1)CCc1c-2nc2ccccc2c1N,47000
20,O=C(CCC1CCN(Cc2cccc([N+](=O)[O-])c2)CC1)c1ccc2c(c1)NCCCC2,390
21,Clc1ccc2c(NCCCCCCCNc3c4c(nc5cc(Cl)ccc35)CCCC4)c3c(nc2c1)CCCC3,0.07
22,CCCCCCNC(=O)Oc1cccc(CN(C)CCCCOc2ccc3c(=O)c4ccccc4oc3c2)c1,100
23,O=C(CCc1c[nH]c2ccccc12)NCCCCCNc1c2c(nc3ccccc13)CCCC2,70

row,Compound,IC50 [nM]
1,CN(C)C(=O)Oc1ccc(-c2cn3c(NC=O)cccc3[n+]2C)cc1,1200
2,c1ccc2c(NCCCCCCCCCNc3ccncc3)c3c(nc2c1)CCCC3,83
3,O=C1c2ccccc2CN1CCC1CCN(Cc2ccccc2)CC1,98
4,CCCN1CCCCc2ccc(C(=O)CCC3CCN(Cc4ccccc4)CC3)cc21,1330
5,COC(=O)Nc1cccc2n1cc(-c1ccc(OC(=O)N(C)C)cc1)[n+]2C,1100
6,O=C1c2ccc([N+](=O)[O-])cc2C(=O)N1CCC1CCN(Cc2ccc(Cl)cc2)CC1,240
7,Fc1ccc2c(NCCCCCCNc3c4c(nc5cc(F)ccc35)CCCC4)c3c(nc2c1)CCCC3,0.9
8,c1ccc(-c2ccc(NCCCCN3CCc4ccccc4C3)nn2)cc1,15000
9,CCCCCCNC(=O)Oc1cccc(CN(C)CCCOc2ccc3c(=O)c4cccnc4oc3c2)c1,42
10,O=C(Nc1ccc2c(c1)C(=O)N(CCC1CCN(Cc3ccccc3)CC1)C2=O)c1ccccc1,1.2
11,CN(C)C(=O)Oc1ccc(-c2cn3c(Cl)cccc3[n+]2C)cc1,12600
12,CC(=O)N(CCC1CCN(Cc2ccccc2)CC1)c1ccc(F)cc1,205
13,CCCCCCNC(=O)Oc1cccc(CN(C)CCCOc2ccc3c(=O)cc(-c4ccccc4)oc3c2)c1,68
14,O=C1c2cccnc2C(=O)N1CCC1CCN(Cc2ccccc2)CC1,13
15,c1ccc(CN2CCC(CCN=c3[nH]nc(-c4ccccc4)c4ccccc34)CC2)cc1,440
17,Cc1cc(C2(c3cc(C)c(O)c(C)c3)CCCCC2)cc(C)c1O,15000
18,N#Cc1ccc2[nH]cc(CCC(=O)NCCCCCCNc3c4c(nc5cc(Cl)ccc35)CCCC4)c2c1,0.7
19,O=C1c2ccccc2CCC1CC1CCN(c2ccccc2)CC1 (stereo unspecified),2100
20,CN(CCOCCNC(=S)Nc1cccc2ccccc12)Cc1ccccc1,10000
21,CNC(=O)Oc1cccc(-c2cn3ccccc3[n+]2C)c1,350
22,c1ccc(CN2CCC(CNc3nsc4ccccc34)CC2)cc1,99
23,O=C(CCC1CCN(Cc2ccc(F)cc2)CC1)c1ccc2c(c1)NCCCC2,393

row,Compound,IC50 [nM]
1,Cc1cccc(CN2CCC(CCC(=O)c3ccc4c(c3)NCCCC4)CC2)c1,224
2,O=C(CCCc1c[nH]c2ccccc12)NCCCCCCNc1c2c(nc3cc(Cl)ccc13)CCCC2,0.5
3,Cn1cc(C(=O)NCCCCCCCNc2c3c(nc4cc(Cl)ccc24)CCCC3)c2ccccc21,10.9
4,O=C(Nc1cccc(C2=NCCN2)c1)Nc1cccc(C2=NCCN2)c1 [IMIDOCARB],590
5,Nc1c2c(nc3ccccc13)-c1ccccc1C2,350
6,O=C(OC1Cc2c(O)cc(O)cc2OC1c1ccc(O)c(O)c1)c1cc(O)c(O)c(O)c1 (stereo unspecified),28000
7,O=C1c2cccc([N+](=O)[O-])c2C(=O)N1CCC1CCN(Cc2ccccc2)CC1,9
8,O=C(CCOCCc1c[nH]c2ccccc12)NCCCCCNc1c2c(nc3cc(Cl)ccc13)CCCC2,1.5
9,CCCCN1CCc2cc(C(=O)CCC3CCN(Cc4ccccc4)CC3)ccc21,29
10,CC(=O)N(C)CCC1CCN(Cc2ccccc2)CC1,660
11,Cc1cc(=NCCC2CCN(Cc3ccccc3)CC2)[nH]nc1-c1ccccc1,21
12,CN(C)CCCCCCCCNc1c2c(nc3ccccc13)CCCC2,47
13,Cc1ccc2nc3c(c(Nc4ccccc4)c2c1)CCCC3,3700
14,CN(CCCNC(=O)CCc1c[nH]c2ccccc12)CCCNc1c2c(nc3cc(Cl)ccc13)CCCC2,2.9
15,c1ccc(-c2ccc(NCCN3CCCCC3)nn2)cc1,13000
16,CCN1CC[C@@]2(C)c3cc(OC(=O)Nc4ccccc4)ccc3C[C@@H]12,176
17,O=C(CCC1CCN(Cc2ccccc2)CC1)c1ccc2c(c1)N(c1ccccc1)CCC2,1490
18,O=C(c1ccncc1)N(CCC1CCN(Cc2ccccc2)CC1)c1ccccc1,64
19,CC(=O)Nc1cccc2n1cc(-c1ccc(OC(=O)N(C)C)cc1)[n+]2C,700
20,COc1ccc(C(=O)N(CCC2CCN(Cc3ccccc3)CC2)c2ccccc2)cc1,590
21,COc1ccc(N(CCC2CCN(Cc3ccccc3)CC2)C(C)=O)cc1,700
22,COc1cc2c(cc1OC)C(O)C(CC1CCN(c3ccccc3)CC1)C2 (stereo unspecified),300
23,O=C1c2ccc([N+](=O)[O-])cc2C(=O)N1CCC1CCN(Cc2ccccc2)CC1,12.5

row,Compound,IC50 [nM]
1,COc1ccc(/N=C/c2cn(-c3ccc(OC)cc3)cc2/C=N/c2ccc(OC)cc2)cc1,14000
2,COC(=O)Nc1ccc2n(c1)cc(-c1ccccc1)[n+]2C,50000
3,COc1ccc2c(c1)C(=O)N(CCC1CCN(Cc3ccccc3)CC1)C2=O,8
4,CCCCCCNC(=O)Oc1cccc(CN(C)CCCOc2ccc3ccc(=O)oc3c2)c1,13
5,CN(C)C(=O)Oc1ccc(-c2cn3c(C(F)(F)F)cccc3[n+]2C)cc1,10000
6,COc1cccc(CN2CCC(CCC(=O)c3ccc4c(c3)CCN4)CC2)c1,2680
7,O=C(CCC1CCN(Cc2ccccc2)CC1)c1ccc2c(c1)N(Cc1ccccc1)CC2,853
8,CN(C)CCCCCCCCCCCCNc1c2c(nc3ccccc13)CCCC2,264
9,O=C(NCCCCCCCNc1c2c(nc3cc(Cl)ccc13)CCCC2)c1n[nH]c2ccccc12,95
10,CCCCNC(=O)Oc1ccc2c(c1)C1CCN(CC)C1C2 (stereo unspecified),1080
11,O=C(CCC1CCN(Cc2ccccc2)CC1)c1ccc2c(c1)N(Cc1ccccc1)CCCC2,3140
12,O=C(CCC1CCN(Cc2ccccc2)CC1)c1ccc2c(c1)NCCC2,164
13,O=c1c2ccccc2ccn1CCC1CCN(Cc2ccccc2)CC1,1100
14,CCCCCCCNC(=O)Oc1ccc2c(c1)[C@]1(C)CCN(CC)[C@@H]1C2,58
15,CCCNC(=O)Oc1ccc2c(c1)C1CCN(CC)C1C2 (stereo unspecified),2190
16,O=C(CCC1CCN(Cc2ccccc2)CC1)c1ccc2c(c1)CCN2c1ccccc1,68
17,NCCCCCCCCNc1c2c(nc3ccccc13)CCCC2,89
18,O=C1c2ccccc2CC1CC1CCN(c2ccccc2)CC1 (stereo unspecified),150
19,CCCCCCCNC(=O)Oc1ccc2c(c1)[C@]1(C)CCN(Cc3ccccc3)[C@@H]1C2,506
